Usually IC50 stands for the concentration needed to halve the response being measured.

Molecules are shown by their SMILES.

One assay addresses CXCR3 (Homo sapiens (Human), UniProt P49682). The experiment in a line: Receptor internalization assay. The assay is classed as cell-based. The conditions noted are these: human whole blood; final CXCL10 concentration 9 nM; 30 min 37° C.; CXCR3 cell surface expression on CD3 positive cells, flow cytometer; read-out: Internalization IC50. In a few lines: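 In human whole blood, compounds were incubated with CXCL10 (9 nM final) for 30 min at 37 °C to drive receptor internalization, then stained with anti-CXCR3/CD3 antibodies and lysed of red cells. Flow cytometry measured mean surface CXCR3 fluorescence on CD3+ cells, and IC50 came from single-site dose-response fits.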
Background: In flow cytometry, cells or beads pass a laser one at a time.

The next assay concerns the target human CXCR3A (Homo sapiens (Human), UniProt P49682). Put plainly: FLIPR assay. The assay is classed as cell-based. The conditions noted are these: CHO-K1 cells expressing the human CXCR3A coupled to Galpha(16); CXCL10 agonist 20 nM; Fluo-4-AM fluorescence; mean values if determined several times. A digest of the protocol:
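CHO-K1 cells expressing CXCR3A coupled to Gα16 were loaded with Fluo-4-AM for 1 h in Hepes-buffered HBSS, pH 7.4, with 5 mM probenecid. Compound dilutions were added on the FLIPR, followed by CXCL10 (added as a 20 nM solution). Baseline-subtracted peak fluorescence was fitted to a single-site curve for IC50.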

Chain of CXCR3 (P49682 whole entry): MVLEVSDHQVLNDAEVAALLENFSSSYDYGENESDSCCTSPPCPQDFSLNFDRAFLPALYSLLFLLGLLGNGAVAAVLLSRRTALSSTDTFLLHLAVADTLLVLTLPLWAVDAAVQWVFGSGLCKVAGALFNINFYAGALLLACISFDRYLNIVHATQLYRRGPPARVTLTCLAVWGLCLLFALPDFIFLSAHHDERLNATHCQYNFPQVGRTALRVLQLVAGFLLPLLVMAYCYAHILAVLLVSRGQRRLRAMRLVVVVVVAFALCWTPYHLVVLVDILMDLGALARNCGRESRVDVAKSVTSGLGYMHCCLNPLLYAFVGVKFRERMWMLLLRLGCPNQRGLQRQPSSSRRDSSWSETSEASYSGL
Chain of human CXCR3A (P49682 whole entry): as above

Take `Cc1nc(C)n(CC(=O)N2CCN(c3sc(C(F)(F)F)nc3-c3nc4ccccc4[nH]3)C[C@@H]2C)n1` [Example 243, 1-{(S)-4-[4-(1H-Benzoimidazol-2-yl)-2-trifluoromethyl-thiazol-5-yl]-2-methyl-piperazin-1-yl}-2-(3,5-dimethyl-[1,2,4]triazol-1-yl)-ethanone]: the IC50 at CXCR3 is 1120 nM; at human CXCR3A it was 3 nM.
For `COc1cc2nc(-c3nc(C(F)(F)F)sc3N3CCN(C(=O)Cn4cnc5cccnc54)[C@H](C)C3)[nH]c2cc1OC` [Example 161, 1-{(R)-4-[4-(5,6-Dimethoxy-1H-benzoimidazol-2-yl)-2-trifluoromethyl-thiazol-5-yl]-2-methyl-piperazin-1-yl}-2-imidazo[4,5-b]pyridin-3-yl-ethanone], in that order: 146 nM and 2 nM.
For `C[C@@H]1CN(c2scnc2-c2nc3cc(C(F)(F)F)ccc3[nH]2)CCN1C(=O)Cn1cnc2cccnc21` [Example 92, 2-Imidazo[4,5-b]pyridin-3-yl-1-{(R)-2-methyl-4-[4-(5-trifluoromethyl-1H-benzoimidazol-2-yl)-thiazol-5-yl]-piperazin-1-yl}-ethanone], in that order: 317 nM and 1 nM.
For `Cc1nc(C)n(CC(=O)N2CCN(c3sc(C(F)(F)F)nc3-c3nc4c(C(F)(F)F)cccc4[nH]3)C[C@H]2C)n1` [Example 232, 2-(3,5-Dimethyl-[1,2,4]triazol-1-yl)-1-{(R)-2-methyl-4-[2-trifluoromethyl-4-(4-trifluoromethyl-1H-benzoimidazol-2-yl)-thiazol-5-yl]-piperazin-1-yl}-ethanone], in that order: 494 nM and 7 nM.
For the compound `Cn1c(=O)n(CC(=O)N2CCN(c3scnc3-c3nc4cc(C(F)(F)F)ccc4[nH]3)CC2)c2ccccc21` [Example 32, 1-Methyl-3-(2-oxo-2-{4-[4-(5-trifluoromethyl-1H-benzoimidazol-2-yl)-thiazol-5-yl]-piperazin-1-yl}-ethyl)-1,3-dihydro-benzoimidazol-2-one], the values for the IC50 on CXCR3 and at human CXCR3A were 633 nM and 2 nM, respectively.
Consider `C[C@@H]1CN(c2sc(C(F)(F)F)nc2-c2nc3ccccc3[nH]2)CCN1C(=O)Cc1ccccc1-n1cccn1` [Example 203, 1-{(R)-4-[4-(1H-Benzoimidazol-2-yl)-2-trifluoromethyl-thiazol-5-yl]-2-methyl-piperazin-1-yl}-2-(2-pyrazol-1-yl-phenyl)-ethanone], for which the IC50 amounted to 2100 nM at CXCR3 and 5 nM on human CXCR3A.
On the same counts, the results for `Cc1cccc(-c2nc(-c3nc4ccccc4[nH]3)c(N3CCN(C(=O)Cn4cnc5cccnc54)[C@H](C)C3)s2)c1` [Example 149, 1-{(R)-4-[4-(1H-Benzoimidazol-2-yl)-2-m-tolyl-thiazol-5-yl]-2-methyl-piperazin-1-yl}-2-imidazo[4,5-b]pyridin-3-yl-ethanone] are 5070 nM and 16 nM.
On the same counts, the results for `C[C@@H]1CN(c2sc(C(F)(F)F)nc2-c2nc3ccccc3[nH]2)CCN1C(=O)Cn1c(=O)[nH]c2cccnc21` [Example 104, 3-(2-{(R)-4-[4-(1H-Benzoimidazol-2-yl)-2-trifluoromethyl-thiazol-5-yl]-2-methyl-piperazin-1-yl}-2-oxo-ethyl)-1,3-dihydro-imidazo[4,5-b]pyridin-2-one] are 119 nM and 1 nM.
For `CC[C@@H]1CN(c2scnc2-c2nc3ccccc3[nH]2)CCN1C(=O)Cn1cnc2cccnc21` [Example 49, 1-{(R)-4-[4-(1H-Benzoimidazol-2-yl)-thiazol-5-yl]-2-ethyl-piperazin-1-yl}-2-imidazo[4,5-b]pyridin-3-yl-ethanone], in that order: 851 nM and 4 nM.
Consider `C[C@@H]1CN(c2sc(C(F)(F)F)nc2-c2nc3ccccc3[nH]2)CCN1C(=O)Cn1cncn1` [Example 194, 1-{(R)-4-[4-(1H-Benzoimidazol-2-yl)-2-trifluoromethyl-thiazol-5-yl]-2-methyl-piperazin-1-yl}-2-[1,2,4]triazol-1-yl-ethanone], for which the values for the IC50 at CXCR3 and at human CXCR3A were 1410 nM and 8 nM, respectively.
For `C[C@@H]1CN(c2sc(C(F)(F)F)nc2-c2nc3ccccc3[nH]2)CCN1C(=O)Cn1cc2c(n1)CCN(C)C2` [Example 215, 1-{(R)-4-[4-(1H-Benzoimidazol-2-yl)-2-trifluoromethyl-thiazol-5-yl]-2-methyl-piperazin-1-yl}-2-(5-methyl-4,5,6,7-tetrahydro-pyrazolo[4,3-c]pyridin-2-yl)-ethanone], in that order: 271 nM and 2 nM.
For `C[C@@H]1CN(c2sc(C(F)(F)F)nc2-c2nc3ccncc3[nH]2)CCN1C(=O)Cn1cnc2cccnc21` [Example 170, 2-Imidazo[4,5-b]pyridin-3-yl-1-{(R)-4-[4-(3H-imidazo[4,5-c]pyridin-2-yl)-2-trifluoromethyl-thiazol-5-yl]-2-methyl-piperazin-1-yl}-ethanone], in that order: 1060 nM and 6 nM.
For `Cc1ccnn1CC(=O)N1CCN(c2sc(C(F)(F)F)nc2-c2nc3ccccc3[nH]2)C[C@H]1C` [Example 176, 1-{(R)-4-[4-(1H-Benzoimidazol-2-yl)-2-trifluoromethyl-thiazol-5-yl]-2-methyl-piperazin-1-yl}-2-(5-methyl-pyrazol-1-yl)-ethanone], in that order: 111 nM and 0.1 nM.
For the compound `Cc1ncn(CC(=O)N2CCN(c3sc(C(F)(F)F)nc3-c3nc4ccccc4[nH]3)C[C@H]2C)n1` [Example 213, 1-{(R)-4-[4-(1H-Benzoimidazol-2-yl)-2-trifluoromethyl-thiazol-5-yl]-2-methyl-piperazin-1-yl}-2-(3-methyl-[1,2,4]triazol-1-yl)-ethanone], the IC50 turned out to be 373 nM on CXCR3 and 1 nM at human CXCR3A.
With `COCCn1c(-c2nc(C(F)(F)F)sc2N2CCN(C(=O)Cn3cccn3)[C@H](C)C2)nc2ccccc21` [Example 185, 1-((R)-4-{4-[1-(2-Methoxy-ethyl)-1H-benzoimidazol-2-yl]-2-trifluoromethyl-thiazol-5-yl}-2-methyl-piperazin-1-yl)-2-pyrazol-1-yl-ethanone], the IC50 on CXCR3 was found to be 6620 nM; at human CXCR3A it was 37 nM.
For `O=C(CN1C(=O)CCc2ccccc21)N1CCN(c2scnc2-c2nc3ccccc3[nH]2)CC1` [Example 77, 1-(2-{4-[4-(1H-Benzoimidazol-2-yl)-thiazol-5-yl]-piperazin-1-yl}-2-oxo-ethyl)-3,4-dihydro-1H-quinolin-2-one], in that order: 1440 nM and 6 nM.
On the same counts, the results for `O=C(Cn1cnc2cccnc21)N1[C@@H]2CC[C@H]1CN(c1scnc1-c1nc3ccccc3[nH]1)C2` [Example 79, rac-1-{(1S*,5R*)-3-[4-(1H-Benzoimidazol-2-yl)-thiazol-5-yl]-3,8-diaza-bicyclo[3.2.1]oct-8-yl}-2-imidazo[4,5-b]pyridin-3-yl-ethanone] are 828 nM and 6 nM.
For `C[C@@H]1CN(c2scnc2-c2nc3ccccc3[nH]2)CCN1C(=O)Cn1c(=O)oc2cccnc21` [Example 155, 3-(2-{(R)-4-[4-(1H-Benzoimidazol-2-yl)-thiazol-5-yl]-2-methyl-piperazin-1-yl}-2-oxo-ethyl)-3H-oxazolo[4,5-b]pyridin-2-one], in that order: 1100 nM and 6 nM.
As to `Cn1c(=O)n(CC(=O)N2CCN(c3scnc3-c3nc4ccccc4[nH]3)CC2)c2ccccc21` [Example 3, 1-(2-{4-[4-(1H-Benzoimidazol-2-yl)-thiazol-5-yl]-piperazin-1-yl}-2-oxo-ethyl)-3-methyl-1,3-dihydro-benzoimidazol-2-one], the values for the 50% inhibitory concentration (IC50) on CXCR3 and at human CXCR3A were 1200 nM and 15 nM, respectively.
For `Cc1nc(C)n(CC(=O)N2CCN(c3sc(C(F)(F)F)nc3-c3nc4ccc(OC5CNC5)cc4[nH]3)C[C@H]2C)n1` [Example 242, 1-((R)-4-{4-[6-(Azetidin-3-yloxy)-1H-benzoimidazol-2-yl]-2-trifluoromethyl-thiazol-5-yl}-2-methyl-piperazin-1-yl)-2-(3,5-dimethyl-[1,2,4]triazol-1-yl)-ethanone], the IC50 on CXCR3 turned out to be 438 nM; on human CXCR3A it was 4 nM.
Turning to `C[C@@H]1CN(c2sc(C(F)(F)F)nc2-c2nc3ccccc3[nH]2)CCN1C(=O)Cn1cnc2c1CN(C)CC2` [Example 210, 1-{(R)-4-[4-(1H-Benzoimidazol-2-yl)-2-trifluoromethyl-thiazol-5-yl]-2-methyl-piperazin-1-yl}-2-(5-methyl-4,5,6,7-tetrahydro-imidazo[4,5-c]pyridin-3-yl)-ethanone], the 50% inhibitory concentration (IC50) was 121 nM at CXCR3 and 1 nM on human CXCR3A.
On the same counts, the results for `Cc1nc2ccccc2n1CC(=O)N1CCN(c2scnc2-c2nc3ccccc3[nH]2)CC1` [Example 2, 1-{4-[4-(1H-Benzoimidazol-2-yl)-thiazol-5-yl]-piperazin-1-yl}-2-(2-methyl-benzoimidazol-1-yl)-ethanone] are 3360 nM and 198 nM.
On the same counts, the results for `C[C@@H]1CN(c2sc(C(F)(F)F)nc2-c2nc3ccccc3[nH]2)CCN1C(=O)Cn1cc2cccnc2n1` [Example 202, 1-{(R)-4-[4-(1H-Benzoimidazol-2-yl)-2-trifluoromethyl-thiazol-5-yl]-2-methyl-piperazin-1-yl}-2-pyrazolo[3,4-b]pyridin-2-yl-ethanone] are 44 nM and 1 nM.

For the origin of these results see patent US9266876B2 (Actelion Pharmaceuticals Ltd., priority 2012, dated 2016).
